Laboratory results: US7514448B2, “Azaindoles useful as inhibitors of rock and other protein kinases” (Vertex Pharmaceuticals Incorporated, priority 2004, dated 2009)

How the values were obtained:
[1] = biological target: ROCK I (AA 6-553) (Homo sapiens, UniProt Q13464); experiment: ROCK inhibition assay, coupled enzyme system ("Enzyme"); assay type: biochemical; conditions: enzyme-linked assay; average Ki if more than one determined
Description: Reactions were carried out in a solution containing 100 mM HEPES (pH 7.5), 10 mM MgCl2, 25 mM NaCl, 2 mM DTT and 1.5% DMSO.
If more than one value of Ki has been determined, the average Ki is indicated. If no value is indicated, then the Ki was not determined.

[2] = biological target: PKA (Homo sapiens, UniProt P17612); experiment: PKA inhibition assay, coupled enzyme; assay type: biochemical; conditions: average Ki if more than one determined
Description: Compounds were screened for their ability to inhibit PKA using a standard coupled enzyme assay (Fox et al., Protein Sci, 1998, 7, 2249). Assays were carried out in a mixture of 100 mM HEPES (pH 7.5), 10 mM MgCl2, 25 mM NaCl, 1 mM DTT and 3% DMSO. Final substrate concentrations in the assay were 50 μM ATP (Sigma Chemicals) and 80 μM peptide (Kemptide, American Peptide, Sunnyvale, Calif.). Assays were carried out at 30° C. and 18 nM PKA. Final concentrations of the components of the coupled enzyme system were 2.5 mM phosphoenolpyruvate, 300 μM NADH, 30 μg/ml pyruvate kinase and 10 μg/ml lactate dehydrogenase.
An assay stock buffer solution was prepared containing all of the reagents listed above, with the exception of ATP, and the test compound of the present invention. […] The plate was preincubated for 10 minutes at 30° C. and the reaction initiated by addition of 5 μl of ATP (final concentration 50 μM). Initial reaction rates were determined with a Molecular Devices SpectraMax Plus plate reader over a 15 minute time course. IC50 and Ki data were calculated from non-linear regression analysis using the Prism software package (GraphPad Prism version 3.0a for Macintosh, GraphPad Software, San Diego Calif., USA).

Chain of ROCK I (AA 6-553) (Q13464 6-553, species assumed): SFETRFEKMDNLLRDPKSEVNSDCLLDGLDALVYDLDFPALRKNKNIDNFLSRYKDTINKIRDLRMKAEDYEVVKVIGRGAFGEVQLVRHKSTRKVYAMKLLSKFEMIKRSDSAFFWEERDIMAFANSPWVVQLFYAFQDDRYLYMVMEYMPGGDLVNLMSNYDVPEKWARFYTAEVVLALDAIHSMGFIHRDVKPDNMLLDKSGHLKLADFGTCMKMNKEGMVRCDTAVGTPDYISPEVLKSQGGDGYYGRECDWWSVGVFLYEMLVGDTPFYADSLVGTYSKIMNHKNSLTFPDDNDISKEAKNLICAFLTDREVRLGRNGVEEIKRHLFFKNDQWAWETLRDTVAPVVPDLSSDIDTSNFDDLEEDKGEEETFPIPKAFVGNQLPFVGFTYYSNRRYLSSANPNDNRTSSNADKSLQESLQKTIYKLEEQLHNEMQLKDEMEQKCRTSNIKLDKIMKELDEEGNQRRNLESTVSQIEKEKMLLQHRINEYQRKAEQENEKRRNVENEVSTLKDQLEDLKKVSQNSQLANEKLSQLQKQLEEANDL

Compound | Ki [1] [nM] | Ki [2] [nM]
c1cnc2[nH]cc(-c3csc(NC4CC4)n3)c2c1 [II-3] | 500 to 5000 | 500 to 5000
O=C(Cc1ccc(F)cc1)Nc1nnc(-c2c[nH]c3ncccc23)s1 [II-7] | < 500 | < 500
CS(=O)(=O)Nc1cccc(CC(=O)Nc2nnc(-c3c[nH]c4ncccc34)s2)c1 [II-9] | < 500 | < 500
O=C(Cc1cc2c(cc1Cl)OCO2)Nc1nnc(-c2c[nH]c3ncccc23)s1 [II-10] | < 500 | 500 to 5000
O=C(Cc1ccc(F)cc1F)Nc1nc(-c2c[nH]c3nccc(F)c23)cs1 [II-13] | < 500 | < 500
CS(=O)(=O)Nc1cccc(CC(=O)Nc2nc(-c3c[nH]c4nccc(F)c34)cs2)c1 [II-14] | < 500 | 500 to 5000
O=C(Cc1ccccc1)Nc1nc(-c2c[nH]c3nccc(F)c23)cs1 [II-16] | < 500 | < 500
O=C(Cc1cccc(OCCCC2CCNCC2)c1)Nc1nc(-c2c[nH]c3nccc(F)c23)cs1 [II-17] | < 500 | 500 to 5000
O=C(Cc1ccc2c(c1)OCO2)Nc1nc(-c2c[nH]c3nccc(F)c23)cs1 [II-18] | < 500 | < 500
COc1cccc(CC(=O)Nc2cc(-c3c[nH]c4ncccc34)cs2)c1 [II-23] | < 500 | < 500
O=C(Cc1cccc(S(=O)(=O)N2CCNCC2)c1)Nc1nc(-c2c[nH]c3ncccc23)cs1 [II-25] | < 500 | < 500
O=C(Cc1cccc(S(=O)(=O)N2CCOCC2)c1)Nc1nc(-c2c[nH]c3ncccc23)cs1 [II-26] | < 500 | 500 to 5000
CS(=O)(=O)Nc1cccc(CC(=O)N(c2nc(-c3c[nH]c4ncccc34)cs2)C2CC2)c1 [II-27] | < 500 | < 500
COc1cccc(CNC(=O)c2ccc(-c3c[nH]c4ncccc34)s2)c1 [II-30] | < 500 | < 500
O=C(NCCc1ccccc1)c1ccc(-c2c[nH]c3ncccc23)s1 [II-31] | < 500 | < 500
O=C(NCCc1cccc(F)c1)c1ccc(-c2c[nH]c3ncccc23)s1 [II-32] | < 500 | < 500
CS(=O)(=O)Nc1cccc(CC(=O)Nc2cc(-c3c[nH]c4ncccc34)cs2)c1 [II-33] | < 500 | < 500
Nc1ccc(CC(=O)Nc2nc(-c3c[nH]c4ncccc34)cs2)c(Cl)c1 [II-34] | < 500 | < 500
CN1CCN(CCCOc2cccc(CC(=O)Nc3nc(-c4c[nH]c5nccc(F)c45)cs3)c2)CC1 [II-37] | < 500 | 500 to 5000
O=C(Cc1cccc(OCCCn2ccnc2)c1)Nc1nc(-c2c[nH]c3nccc(F)c23)cs1 [II-38] | < 500 | 500 to 5000
NC(=O)c1cccc(CC(=O)Nc2nc(-c3c[nH]c4ncccc34)cs2)c1 [II-41] | < 500 | < 500
O=C(Cc1cccc(S(=O)(=O)N[C@H]2CCOC2)c1)Nc1nc(-c2c[nH]c3ncccc23)cs1 [II-42] | < 500 | < 500

Compound | Ki [1] [nM] | Ki [2] [nM]
CC(=O)N1[C@H](C)CN(c2nc(-c3c[nH]c4ncc(Cl)cc34)cs2)C[C@@H]1C [II-43] | 500 to 5000 | 500 to 5000
O=C(Cc1ccccc1F)N(c1nc(-c2c[nH]c3ncccc23)cs1)C1CC1 [II-44] | < 500 | < 500
O=C(Cc1ccc(F)cc1F)N(c1nc(-c2c[nH]c3ncccc23)cs1)C1CC1 [II-45] | < 500 | < 500
CS(=O)(=O)Nc1cccc(CC(=O)Nc2csc(-c3c[nH]c4ncccc34)n2)c1 [II-46] | < 500 | < 500
CN1CCCN(S(=O)(=O)c2cccc(CC(=O)Nc3nc(-c4c[nH]c5ncccc45)cs3)c2)CC1 [II-52] | < 500 | < 500
O=C(Cc1ccc(F)cc1F)Nc1csc(-c2c[nH]c3ncccc23)n1 [II-56] | < 500 | < 500
O=C(Cc1cccc(S(=O)(=O)N2CCOCC2)c1)Nc1nnc(-c2c[nH]c3ncccc23)s1 [II-58] | 500 to 5000 | 500 to 5000
O=C(Cc1cccc(S(=O)(=O)N2CCOCC2)c1)Nc1cc(-c2c[nH]c3ncccc23)cs1 [II-59] | < 500 | < 500
O=C(Cc1ccccc1F)Nc1csc(-c2c[nH]c3ncccc23)n1 [II-60] | < 500 | < 500
CCN(CC)S(=O)(=O)c1cccc(CC(=O)Nc2csc(-c3c[nH]c4ncccc34)n2)c1 [II-63] | < 500 | 500 to 5000
CCN(CC)S(=O)(=O)c1cccc(CC(=O)Nc2nnc(-c3c[nH]c4ncccc34)s2)c1 [II-64] | 500 to 5000 | 500 to 5000
O=C(NCc1cccc(S(=O)(=O)N2CCOCC2)c1)c1ccc(-c2c[nH]c3ncccc23)s1 [II-65] | < 500 | < 500
CCN(CC)S(=O)(=O)c1cccc(CC(=O)Nc2nc(-c3c[nH]c4nccc(F)c34)cs2)c1 [II-67] | < 500 | 500 to 5000
O=C(Cc1cccc(O)c1)N(c1nc(-c2c[nH]c3ncccc23)cs1)C1CC1 [II-68] | < 500 | < 500
O=C(Cc1ccc2c(c1)OCO2)N(c1nc(-c2c[nH]c3ncccc23)cs1)C1CC1 [II-69] | < 500 | < 500
COc1cccc(CNC(=O)c2cc(-c3c[nH]c4ncccc34)cs2)c1 [II-71] | < 500 | < 500
O=C(Cc1cccc(S(=O)(=O)NCC2CCCO2)c1)Nc1nc(-c2c[nH]c3ncccc23)cs1 (stereo not shown) [II-72] | < 500 | < 500
CS(=O)(=O)c1ccc(CC(=O)N(c2nc(-c3c[nH]c4ncccc34)cs2)C2CC2)cc1 [II-73] | < 500 | 500 to 5000
CS(=O)(=O)c1ccc(CC(=O)Nc2nc(-c3c[nH]c4ncccc34)cs2)cc1 [II-74] | < 500 | 500 to 5000
COc1ccc(CC(=O)N(c2nc(-c3c[nH]c4ncccc34)cs2)C2CC2)c(Cl)c1 [II-75] | < 500 | < 500
O=C(Cc1cccc(OCCCC2CCNCC2)c1)N(c1nc(-c2c[nH]c3ncccc23)cs1)C1CC1 [II-76] | < 500 | 500 to 5000

Further lines, results first:

Ki [1] [nM] | Ki [2] [nM] | Compound
< 500 | < 500 | O=C(Cc1cccc(S(=O)(=O)NC2CC2)c1)Nc1nc(-c2c[nH]c3ncccc23)cs1 [II-6]
< 500 | < 500 | O=C(Cc1ccccc1)Nc1nnc(-c2c[nH]c3ncccc23)s1 [II-8]
< 500 | < 500 | O=C(Cc1ccccc1F)Nc1nc(-c2c[nH]c3nccc(F)c23)cs1 [II-11]
< 500 | < 500 | O=C(Cc1ccc(F)cc1)Nc1nc(-c2c[nH]c3nccc(F)c23)cs1 [II-12]
< 500 | < 500 | O=C(CCc1ccccc1)Nc1nc(-c2c[nH]c3nccc(F)c23)cs1 [II-15]
< 500 | < 500 | COc1cccc(CC(=O)Nc2nc(-c3c[nH]c4nccc(F)c34)cs2)c1 [II-19]
< 500 | < 500 | O=C(Cc1cc2c(cc1Cl)OCO2)Nc1nc(-c2c[nH]c3nccc(F)c23)cs1 [II-20]
< 500 | 500 to 5000 | CCN(CC)S(=O)(=O)c1cccc(CC(=O)Nc2nc(-c3c[nH]c4ncccc34)cs2)c1 [II-24]
< 500 | < 500 | O=C(NCc1ccc(F)cc1F)c1ccc(-c2c[nH]c3ncccc23)s1 [II-28]
< 500 | < 500 | O=C(NCc1ccccc1)c1ccc(-c2c[nH]c3ncccc23)s1 [II-29]
< 500 | 500 to 5000 | CCS(=O)(=O)Nc1ccc(CC(=O)Nc2nc(-c3c[nH]c4ncccc34)cs2)c(Cl)c1 [II-35]
< 500 | 500 to 5000 | O=C(Cc1cccc(OCCCN2CCNCC2)c1)Nc1nc(-c2c[nH]c3nccc(F)c23)cs1 [II-36]
< 500 | < 500 | CS(=O)(=O)Nc1ccc(CC(=O)Nc2nc(-c3c[nH]c4ncccc34)cs2)c(Cl)c1 [II-47]
< 500 | < 500 | CC(C)S(=O)(=O)Nc1ccc(CC(=O)Nc2nc(-c3c[nH]c4ncccc34)cs2)c(Cl)c1 [II-48]
< 500 | < 500 | COc1cccc(CC(=O)Nc2csc(-c3c[nH]c4ncccc34)n2)c1 [II-55]
< 500 | 500 to 5000 | O=C(Cc1cccc(S(=O)(=O)N2CCOCC2)c1)Nc1csc(-c2c[nH]c3ncccc23)n1 [II-57]
< 500 | < 500 | O=C(Cc1ccc(F)cc1)Nc1csc(-c2c[nH]c3ncccc23)n1 [II-61]
< 500 | < 500 | O=C(Cc1ccccc1)Nc1csc(-c2c[nH]c3ncccc23)n1 [II-62]
< 500 | 500 to 5000 | O=C(Cc1cccc(S(=O)(=O)N2CCOCC2)c1)Nc1nc(-c2c[nH]c3nccc(F)c23)cs1 [II-66]
< 500 | < 500 | COc1cccc(CC(=O)N(c2nc(-c3c[nH]c4ncccc34)cs2)C2CC2)c1 [II-70]
< 500 | 500 to 5000 | COc1cccc(CC(=O)Nc2nc(-c3c[nH]c4ncc(Br)cc34)cs2)c1 [II-77]
< 500 | 500 to 5000 | CS(=O)(=O)Nc1cccc(CC(=O)Nc2nc(-c3c[nH]c4ncc(Br)cc34)cs2)c1 [II-78]
